Numbers after ± are expanded uncertainties.
How the values were obtained:
[1] = 96 kPa, Liquid; for viscosity: Cone and plate viscometry; for electrical conductivity: Frequency=0.001 MHz, Alternating current cell with electrodes
[2] = xn = mol fraction of the nth substance listed; conditions: 96 kPa, Liquid, Cone and plate viscometry, x2 = 0

SMILES	viscosity ([1]; 288.1 K)	viscosity ([1]; 298.1 K)	viscosity ([1]; 308.1 K)	viscosity ([1]; 318.1 K)	viscosity ([1]; 328.1 K)	electrical conductivity ([1]; 288.1 K)	electrical conductivity ([1]; 293.1 K)	electrical conductivity ([1]; 298.1 K)	electrical conductivity ([1]; 303.1 K)	electrical conductivity ([1]; 308.1 K)	electrical conductivity ([1]; 313.1 K)	electrical conductivity ([1]; 318.1 K)	electrical conductivity ([1]; 323.1 K)	electrical conductivity ([1]; 328.1 K)	viscosity ([2]; 288.1 K)	viscosity ([2]; 298.1 K)	viscosity ([2]; 308.1 K)	viscosity ([2]; 318.1 K)	viscosity ([2]; 328.1 K)
OCC(O)CO [glycerol]	2180 ± 380 mPa·s	933.8 ± 110 mPa·s	420.3 ± 39 mPa·s	195.6 ± 15 mPa·s	104.3 ± 7.3 mPa·s	–	–	–	–	–	–	–	–	–	–	–	–	–	–
C1CCC2=NCCCN2CC1 [1,8-diaza-7-bicyclo[5.4.0]undecene]	15.35 ± 1 mPa·s	10.32 ± 0.67 mPa·s	8.17 ± 0.53 mPa·s	6.08 ± 0.39 mPa·s	4.91 ± 0.32 mPa·s	0.000222 ± 8.8e-06 S/m	0.000241 ± 9.5e-06 S/m	0.000267 ± 1.1e-05 S/m	0.000297 ± 1.2e-05 S/m	0.00032 ± 1.3e-05 S/m	0.000356 ± 1.4e-05 S/m	0.000382 ± 1.5e-05 S/m	0.000423 ± 1.7e-05 S/m	0.000444 ± 1.8e-05 S/m	–	–	–	–	–
OCC(O)CO [glycerol] + C1CCC2=NCCCN2CC1	–	–	–	–	–	–	–	–	–	–	–	–	–	–	2180 ± 380 mPa·s	933.8 ± 110 mPa·s	420.3 ± 39 mPa·s	195.6 ± 15 mPa·s	104.3 ± 7.3 mPa·s

Reference: the NIST ThermoML archive (doi:10.1016/j.jct.2019.04.017)
